We go through 20 compounds from ChEMBL document CHEMBL1136509, “Structure-activity relationships of novel anti-malarial agents: part 5. N-(4-acylamino-3-benzoylphenyl)-[5-(4-nitrophenyl)-2-furyl]acrylic acid amides” (Bioorg Med Chem Lett, 2003).

For the experiment, the system named is Plasmodium falciparum. Briefly: Inhibitory activity against Plasmodium falciparum Dd2 in erythrocytes by semiautomated micro dilution. The class given is functional, organism-based.
A word on the IC50: it is the concentration needed to halve the response being measured. A low value points to greater potency. In turn, `O=C(/C=C/c1ccc(-c2ccc([N+](=O)[O-])cc2)o1)Nc1ccc(NC(=O)Cc2ccccc2C(F)(F)F)c(C(=O)c2ccccc2)c1` gave an IC50 of 1000 nM.

For `O=C(/C=C/c1ccc(-c2ccc([N+](=O)[O-])cc2)o1)Nc1ccc(NC(=O)Cc2ccccc2Br)c(C(=O)c2ccccc2)c1`, the IC50 came to 1000 nM.

As to `O=C(/C=C/c1ccc(-c2ccc([N+](=O)[O-])cc2)o1)Nc1ccc(NC(=O)c2ccc(Cl)cc2)c(C(=O)c2ccccc2)c1`, the IC50 was found to be 2500 nM.

Regarding `O=C(/C=C/c1ccc(-c2ccc([N+](=O)[O-])cc2)o1)Nc1ccc(NC(=O)Cc2ccc3ccccc3c2)c(C(=O)c2ccccc2)c1`, 210 nM corresponded to half-maximal inhibition (IC50).

On to `Cc1cccc(CC(=O)Nc2ccc(NC(=O)/C=C/c3ccc(-c4ccc([N+](=O)[O-])cc4)o3)cc2C(=O)c2ccccc2)c1`, for which half-maximal inhibition (IC50) was put at 150 nM.

Compound `Cc1ccccc1CC(=O)Nc1ccc(NC(=O)/C=C/c2ccc(-c3ccc([N+](=O)[O-])cc3)o2)cc1C(=O)c1ccccc1` came in with an IC50 of 650 nM.

In turn, `O=C(/C=C/c1ccc(-c2ccc([N+](=O)[O-])cc2)o1)Nc1ccc(NC(=O)c2cccc3ccccc23)c(C(=O)c2ccccc2)c1` displayed an IC50 of 770 nM.

Take `O=C(/C=C/c1ccc(-c2ccc([N+](=O)[O-])cc2)o1)Nc1ccc(NC(=O)Cc2ccc(Cl)cc2)c(C(=O)c2ccccc2)c1`: the IC50 turned out to be 64 nM.

Consider `O=C(/C=C/c1ccc(-c2ccc([N+](=O)[O-])cc2)o1)Nc1ccc(NC(=O)Cc2ccc(-c3ccccc3)cc2)c(C(=O)c2ccccc2)c1`, for which half-maximal inhibition (IC50) required 1000 nM.

`O=C(/C=C/c1ccc(-c2ccc([N+](=O)[O-])cc2)o1)Nc1ccc(NC(=O)Cc2ccccc2)c(C(=O)c2ccccc2)c1`: half-maximal inhibition (IC50) required 270 nM.

Compound `COc1ccc(CC(=O)Nc2ccc(NC(=O)/C=C/c3ccc(-c4ccc([N+](=O)[O-])cc4)o3)cc2C(=O)c2ccccc2)cc1` displayed an IC50 of 320 nM.

With `O=C(/C=C/c1ccc(-c2ccc([N+](=O)[O-])cc2)o1)Nc1ccc(NC(=O)Cc2ccc(C(F)(F)F)cc2)c(C(=O)c2ccccc2)c1`, the IC50 was determined as 47 nM.

`O=C(/C=C/c1ccc(-c2ccc([N+](=O)[O-])cc2)o1)Nc1ccc(NC(=O)C(c2ccccc2)c2ccccc2)c(C(=O)c2ccccc2)c1` gave an IC50 of 5500 nM.

With `O=C(/C=C/c1ccc(-c2ccc([N+](=O)[O-])cc2)o1)Nc1ccc(NC(=O)Cc2cccc3ccccc23)c(C(=O)c2ccccc2)c1`, it took 250 nM to reach half-maximal inhibition (IC50).

In the case of `O=C(/C=C/c1ccc(-c2ccc([N+](=O)[O-])cc2)o1)Nc1ccc(NC(=O)Cc2ccc(Br)cc2)c(C(=O)c2ccccc2)c1`, the concentration for half-maximal inhibition (IC50) was determined as 70 nM.

Regarding `O=C(/C=C/c1ccc(-c2ccc([N+](=O)[O-])cc2)o1)Nc1ccc(NC(=O)Cc2ccc([N+](=O)[O-])cc2)c(C(=O)c2ccccc2)c1`, half-maximal inhibition (IC50) required 1400 nM.

For `O=C(/C=C/c1ccc(-c2ccc([N+](=O)[O-])cc2)o1)Nc1ccc(NC(=O)c2ccccc2)c(C(=O)c2ccccc2)c1`, the midpoint of inhibition, the IC50, lay at 3000 nM.

Compound `CC(C(=O)Nc1ccc(NC(=O)/C=C/c2ccc(-c3ccc([N+](=O)[O-])cc3)o2)cc1C(=O)c1ccccc1)c1ccccc1` (stereo not given) registered an IC50 of 500 nM.

Turning to `O=C(/C=C/c1ccc(-c2ccc([N+](=O)[O-])cc2)o1)Nc1ccc(NC(=O)c2ccc3ccccc3c2)c(C(=O)c2ccccc2)c1`, the IC50 was determined as 2500 nM.

`O=C(/C=C/c1ccc(-c2ccc([N+](=O)[O-])cc2)o1)Nc1ccc(NC(=O)Cc2ccc(F)cc2)c(C(=O)c2ccccc2)c1` came in with an IC50 of 230 nM.
